Values quoted from earlier work in patent publication US20140228595A1, “PROCESSES FOR PRODUCING HEXANEDIOL (HDO), HEXAMETHYLENEDIAMINE (HMD), ADIPONITRILE (ADN), ADIPAMIDE (ADM) AND DERIVATIVES THEREOF” (BioAmber S.A.S., priority 2011, published 2014).

pKa1 (Table 1, Run 1): 4.43
pKa of the second acid group of AA (second acid group): 5.1
Compound: O=C(O)CCCCC(=O)O [AA, adipic acid]
